Data as given in patent publication US11426417B2, “Neuroactive steroid formulations and methods of treating CNS disorders” (Sage Therapeutics, Inc., priority 2012, dated 2022).

Key:
[1] = test system: penetrating ballistic brain injury rodent model; assay: Penetrating ballistic brain injury rodent model of traumatic brain injury; type: in vivo; conditions: in 6% CAPTISOL; low (2.5 then 1.25 mg/kg/hr) and high (5.0 then 2.50 mg/kg/hr) dose groups, 5 day infusion
Source text: FIG. 5A depicts the latency to fall period (seconds) in a penetrating ballistic brain injury rodent model of traumatic brain injury in both the low and high dose groups progesterone in 6% CAPTISOL®. FIG. 5B depicts the mean motor score in a penetrating ballistic brain injury rodent model of traumatic brain injury in both the low and high dose groups progesterone in 6% CAPTISOL®.
Progesterone in 6% CAPTISOL® rescued motor impairment in a penetrating ballistic brain injury rodent model of traumatic brain injury in both the low and high dose groups (FIG. 5A and FIG. 5B). Progesterone was administered via a bolus loading dose followed by a 5 day continuous infusion where progesterone was tapered over the last 24 hours every 8 hrs by 25%. The low dose group received 2.5 mg/kg/hr for a 1 hr bolus infusion followed by a maintenance dose of 1.25 mg/kg/hr over 5 days with the last 24 hours being a taper. The high dose group received 5.0 mg/kg/hr for a 1 hr bolus infusion followed by a maintenance dose of 2.50 mg/kg/hr over 5 days with the last 24 hours being a taper.

[2] = test system: Fmr1 KO mice; assay: Audiogenic seizure (AGS) status epilepticus rescue in Fmr1 knockout mice; type: in vivo; conditions: 3, 10, 30 mg/kg IP in 30% b-Cyclodextrin; relative to vehicle treated control
Procedure: FIG. 1A is a bar graph depicting the percent seizure in fmr1 KO mice intraperitoneally administered 3, 10, 30 mg/kg allopregnanolone in 30% β-Cyclodextrin. FIG. 1B is a bar graph depicting the percent survival in fmr1 KO mice intraperitoneally administered 3, 10, 30 mg/kg allopregnanolone in 30% β-Cyclodextrin.
(§1) Plasma levels of six animals in each Allopregnanolone treatment group were collected randomly at completion of study and analyzed by LC-MS/MS. Bioanalytical measures are indicated in ng/mL (FIG. 1A). Data are presented as mean+/−SEM. *P<0.05 indicate a statistically significant difference relative to vehicle control by Fisher's PLSD. MPEP 30 mg/kg was used as a positive control in the study.

[3] = Plasma and brain exposure by LC/MS-MS after single IM or IV dose; conditions: 30% CAPTISOL, SD rats
Procedure: FIG. 4A depicts the plasma exposure profiles of allopregnanolone measured by LC/MS-MS after single intramuscular (10 mg/kg) or intravenous (5 mg/kg) allopregnanolone dose in 30% CAPTISOL® in SD rats. FIG. 4B depicts the brain exposure profiles of allopregnanolone measured by LC/MS-MS after single intramuscular (10 mg/kg) or intravenous (5 mg/kg) allopregnanolone dose in 30% CAPTISOL® in SD rats.
The plasma and brain exposure profiles of Allopregnanolone were measured by LC/MS-MS after single intramuscular (IM) (10 mg/kg) or intravenous (IV) (5 mg/kg) dose in 30% CAPTISOL® in SD rats. […] N=2/time point. Error bars, SEM (FIGS. 4A and 4B).

[4] = test system: PTZ-treated C57BL6/J mice; assay: PTZ (pentylenetetrazol) seizure model, prevention of status epilepticus; type: in vivo; conditions: 3, 10, 30 mg/kg IP in 15% β-Cyclodextrin; PTZ 85 mg/kg IP; relative to vehicle-treated control
Procedure: FIG. 2A is a graph depicting the seizure rank in PZT treated C57BL6/J mice intraperitoneally administered 3, 10, 30 mg/kg allopregnanolone in 15% β-Cyclodextrin. FIG. 2B is graph depicting the latency to death period in PZT treated C57BL65 mice intraperitoneally administered 3, 10, 30 mg/kg allopregnanolone in 15% β-Cyclodextrin.
as §1, with “three” for “six”, “2A).” for “1A).”, “Valproate 400” for “MPEP 30”

## CC(=O)[C@H]1CC[C@H]2[C@@H]3CCC4=CC(=O)CC[C@]4(C)[C@H]3CC[C@]12C [Progesterone, pregn-4-ene-3,20-dione]
[1]
  motor impairment (latency to fall, mean motor score): rescued

## CC(=O)[C@H]1CC[C@H]2[C@@H]3CC[C@H]4C[C@H](O)CC[C@]4(C)[C@H]3CC[C@]12C [Allopregnanolone, 3 alpha-hydroxy-5 alpha-pregnan-20-one]
[2]
  Percent Seizure: significant decrease
  Percent Survival: increase
[3]; 0.5-2 hr
  exposure in plasma, IM (10 mg/kg) relative to IV (5 mg/kg) dose: 671-916%
[3]; 1 hr
  exposure in brain, IM (10 mg/kg) relative to IV (5 mg/kg) dose: 506%
[4]
  Latency to Death: increase
  Seizure rank: significant decrease
